# Source: US20180214395A1 (priority 2017, published 2018)
# Test: SAD study: cardiac safety (ECG, telemetry, QTcF prolongation)
structure (smiles),measurement,setting,value
CCC(=O)C(C[C@H](C)N(C)C)(c1ccccc1)c1ccccc1 [d-methadone],"Overall ECG result Abnormal, NCS","5 mg (N = 6), 0.5 h",0 n (%)
same,Overall ECG result Normal,"5 mg (N = 6), 0.5 h",6 n (%)
same,"Overall ECG result Abnormal, NCS","5 mg (N = 6), 1 h",1 n (%)
same,Overall ECG result Normal,"5 mg (N = 6), 1 h",5 n (%)
same,"Overall ECG result Abnormal, NCS","5 mg (N = 6), 2 h",3 n (%)
same,Overall ECG result Normal,"5 mg (N = 6), 2 h",3 n (%)
same,"Overall ECG result Abnormal, NCS","5 mg (N = 6), 3 h",2 n (%)
same,Overall ECG result Normal,"5 mg (N = 6), 3 h",4 n (%)
same,"Overall ECG result Abnormal, NCS","5 mg (N = 6), 5 h",2 n (%)
same,Overall ECG result Normal,"5 mg (N = 6), 5 h",4 n (%)
same,"Overall ECG result Abnormal, NCS","5 mg (N = 6), 8 h",0 n (%)
same,Overall ECG result Normal,"5 mg (N = 6), 8 h",6 n (%)
same,"Overall ECG result Abnormal, NCS","5 mg (N = 6), 12 h",0 n (%)
same,Overall ECG result Normal,"5 mg (N = 6), 12 h",6 n (%)
same,"Overall ECG result Abnormal, NCS","5 mg (N = 6), 24 h",1 n (%)
same,Overall ECG result Normal,"5 mg (N = 6), 24 h",5 n (%)
same,"Overall ECG result Abnormal, NCS","5 mg (N = 6), 48 h",0 n (%)
same,Overall ECG result Normal,"5 mg (N = 6), 48 h",6 n (%)
same,"Overall ECG result Abnormal, NCS","5 mg (N = 6), 72 h",0 n (%)
same,Overall ECG result Normal,"5 mg (N = 6), 72 h",6 n (%)
same,"Overall ECG result Abnormal, NCS","5 mg (N = 6), Visit 3",1 n (%)
same,Overall ECG result Normal,"5 mg (N = 6), Visit 3",5 n (%)
same,QTcF Average,"5 mg, subject 9002, 5 h",445 ms
same,QTcF Reading 1,"5 mg, subject 9002, 5 h",451 ms
same,QTcF Reading 2,"5 mg, subject 9002, 5 h",446 ms
same,QTcF Reading 3,"5 mg, subject 9002, 5 h",439 ms
same,QTcF Average,"5 mg, subject 9003, 1 h",420 ms
same,QTcF Reading 1,"5 mg, subject 9003, 1 h",437 ms
same,QTcF Reading 2,"5 mg, subject 9003, 1 h",411 ms
same,QTcF Reading 3,"5 mg, subject 9003, 1 h",412 ms
same,QTcF Average,"5 mg, subject 9003, 2 h",432 ms
same,QTcF Reading 1,"5 mg, subject 9003, 2 h",440 ms
same,QTcF Reading 2,"5 mg, subject 9003, 2 h",434 ms
same,QTcF Reading 3,"5 mg, subject 9003, 2 h",421 ms
same,QTcF Average,"5 mg, subject 9003, 3 h",429 ms
same,QTcF Reading 1,"5 mg, subject 9003, 3 h",424 ms
same,QTcF Reading 2,"5 mg, subject 9003, 3 h",427 ms
same,QTcF Reading 3,"5 mg, subject 9003, 3 h",435 ms
same,QTcF Average,"5 mg, subject 9003, 5 h",432 ms
same,QTcF Reading 1,"5 mg, subject 9003, 5 h",434 ms
same,QTcF Reading 2,"5 mg, subject 9003, 5 h",435 ms
same,QTcF Reading 3,"5 mg, subject 9003, 5 h",426 ms
same,QTcF Average,"5 mg, subject 9009, 2 h",420 ms
same,QTcF Reading 1,"5 mg, subject 9009, 2 h",413 ms
same,QTcF Reading 2,"5 mg, subject 9009, 2 h",431 ms
same,QTcF Reading 3,"5 mg, subject 9009, 2 h",417 ms
same,"Overall ECG result Abnormal, NCS","20 mg (N = 6), 0.5 h",1 (16.7) n (%)
same,Overall ECG result Normal,"20 mg (N = 6), 0.5 h",5 (83.3) n (%)
same,"Overall ECG result Abnormal, NCS","20 mg (N = 6), 1 h",1 (16.7) n (%)
same,Overall ECG result Normal,"20 mg (N = 6), 1 h",5 (83.3) n (%)
same,"Overall ECG result Abnormal, NCS","20 mg (N = 6), 2 h",2 (33.3) n (%)
same,Overall ECG result Normal,"20 mg (N = 6), 2 h",4 (66.7) n (%)
same,"Overall ECG result Abnormal, NCS","20 mg (N = 6), 3 h",2 (33.3) n (%)
same,Overall ECG result Normal,"20 mg (N = 6), 3 h",4 (66.7) n (%)
same,"Overall ECG result Abnormal, NCS","20 mg (N = 6), 5 h",1 (16.7) n (%)
same,Overall ECG result Normal,"20 mg (N = 6), 5 h",5 (83.3) n (%)
same,"Overall ECG result Abnormal, NCS","20 mg (N = 6), 8 h",1 (16.7) n (%)
same,Overall ECG result Normal,"20 mg (N = 6), 8 h",5 (83.3) n (%)
same,"Overall ECG result Abnormal, NCS","20 mg (N = 6), 12 h",1 (16.7) n (%)
same,Overall ECG result Normal,"20 mg (N = 6), 12 h",5 (83.3) n (%)
same,"Overall ECG result Abnormal, NCS","20 mg (N = 6), 24 h",1 (16.7) n (%)
same,Overall ECG result Normal,"20 mg (N = 6), 24 h",5 (83.3) n (%)
same,"Overall ECG result Abnormal, NCS","20 mg (N = 6), 48 h",2 (33.3) n (%)
same,Overall ECG result Normal,"20 mg (N = 6), 48 h",4 (66.7) n (%)
same,"Overall ECG result Abnormal, NCS","20 mg (N = 6), 72 h",1 (16.7) n (%)
same,Overall ECG result Normal,"20 mg (N = 6), 72 h",5 (83.3) n (%)
same,"Overall ECG result Abnormal, NCS","20 mg (N = 6), Visit 3",0 n (%)
same,Overall ECG result Normal,"20 mg (N = 6), Visit 3",6 (100) n (%)
same,"Overall ECG result Abnormal, NCS","60 mg (N = 6), 0.5 h",1 (16.7) n (%)
same,Overall ECG result Normal,"60 mg (N = 6), 0.5 h",5 (83.3) n (%)
same,"Overall ECG result Abnormal, NCS","60 mg (N = 6), 1 h",2 (33.3) n (%)
same,Overall ECG result Normal,"60 mg (N = 6), 1 h",4 (66.7) n (%)
same,"Overall ECG result Abnormal, NCS","60 mg (N = 6), 2 h",2 (33.3) n (%)
same,Overall ECG result Normal,"60 mg (N = 6), 2 h",4 (66.7) n (%)
same,"Overall ECG result Abnormal, NCS","60 mg (N = 6), 3 h",1 (16.7) n (%)
same,Overall ECG result Normal,"60 mg (N = 6), 3 h",5 (83.3) n (%)
same,"Overall ECG result Abnormal, NCS","60 mg (N = 6), 5 h",1 (16.7) n (%)
same,Overall ECG result Normal,"60 mg (N = 6), 5 h",5 (83.3) n (%)
same,"Overall ECG result Abnormal, NCS","60 mg (N = 6), 8 h",2 (33.3) n (%)
same,Overall ECG result Normal,"60 mg (N = 6), 8 h",4 (66.7) n (%)
same,"Overall ECG result Abnormal, NCS","60 mg (N = 6), 12 h",3 (50.0) n (%)
same,Overall ECG result Normal,"60 mg (N = 6), 12 h",3 (50.0) n (%)
same,"Overall ECG result Abnormal, NCS","60 mg (N = 6), 24 h",2 (33.3) n (%)
same,Overall ECG result Normal,"60 mg (N = 6), 24 h",4 (66.7) n (%)
same,"Overall ECG result Abnormal, NCS","60 mg (N = 6), 48 h",2 (33.3) n (%)
same,Overall ECG result Normal,"60 mg (N = 6), 48 h",4 (66.7) n (%)
same,"Overall ECG result Abnormal, NCS","60 mg (N = 6), 72 h",1 (16.7) n (%)
same,Overall ECG result Normal,"60 mg (N = 6), 72 h",5 (83.3) n (%)
same,"Overall ECG result Abnormal, NCS","60 mg (N = 6), Visit 3",1 (16.7) n (%)
same,Overall ECG result Normal,"60 mg (N = 6), Visit 3",5 (83.3) n (%)
same,"Overall ECG result Abnormal, NCS","100 mg (N = 6), 0.5 h",1 n (%)
same,Overall ECG result Normal,"100 mg (N = 6), 0.5 h",5 n (%)
same,"Overall ECG result Abnormal, NCS","100 mg (N = 6), 1 h",0 n (%)
same,Overall ECG result Normal,"100 mg (N = 6), 1 h",6 n (%)
same,"Overall ECG result Abnormal, NCS","100 mg (N = 6), 2 h",1 n (%)
same,Overall ECG result Normal,"100 mg (N = 6), 2 h",5 n (%)
same,"Overall ECG result Abnormal, NCS","100 mg (N = 6), 3 h",3 n (%)
same,Overall ECG result Normal,"100 mg (N = 6), 3 h",3 n (%)
same,"Overall ECG result Abnormal, NCS","100 mg (N = 6), 5 h",1 n (%)
same,Overall ECG result Normal,"100 mg (N = 6), 5 h",5 n (%)
same,"Overall ECG result Abnormal, NCS","100 mg (N = 6), 8 h",1 n (%)
same,Overall ECG result Normal,"100 mg (N = 6), 8 h",5 n (%)
same,"Overall ECG result Abnormal, NCS","100 mg (N = 6), 12 h",0 n (%)
same,Overall ECG result Normal,"100 mg (N = 6), 12 h",6 n (%)
same,"Overall ECG result Abnormal, NCS","100 mg (N = 6), 24 h",1 n (%)
same,Overall ECG result Normal,"100 mg (N = 6), 24 h",5 n (%)
same,"Overall ECG result Abnormal, NCS","100 mg (N = 6), 48 h",1 n (%)
same,Overall ECG result Normal,"100 mg (N = 6), 48 h",5 n (%)
same,"Overall ECG result Abnormal, NCS","100 mg (N = 6), 72 h",0 n (%)
same,Overall ECG result Normal,"100 mg (N = 6), 72 h",6 n (%)
same,"Overall ECG result Abnormal, NCS","100 mg (N = 6), Visit 3",0 n (%)
same,Overall ECG result Normal,"100 mg (N = 6), Visit 3",6 n (%)
same,QTcF Average,"100 mg, subject 9056, 0.5 h",425 ms
